# Data: patent publication US6063814A, “Phorbol esters as anti-neoplastic and white blood cell elevating agents” (priority 1997, dated 2000)
# Where two headings read alike, the source gives them in different places.
# Tests used:
# [1] = type: in vivo, humans
# Experimental: TPA solution in a sterile syringe was injected into 200 ml of saline and mixed well for i.v. infusion.
# 2. The Toxicity and Side Effects of Different TPA Doses Administered Clinically:
# One mg TPA in solution was mixed well with 200 ml of saline for i.v. infusion which was completed in 1 h at the rate of 16 μg/min. […] The above symptoms could be alleviated by giving the patients glucocorticoids. […] The cardiac, hepatic, renal and pulmonary functions were all found to be normal.
# 0.5 mg of TPA in solution was mixed well with 200 ml of saline for i.v. infusion which was completed in 1 h at the rate of 8 μg/min. […] Difficulty in breathing was not observed. The cardiac, hepatic, renal and pulmonary functions were all normal.
# 0.25 mg of TPA in solution was mixed well with 200 ml of saline for i.v. infusion which was completed in 1 h at the rate of 4 μg/min. […] The cardiac, hepatic, renal and pulmonary functions were all normal.
# [2] = tested on: Peripheral White Blood Cells (WBC) and Hemoglobin (Hb); assay: Peripheral white blood cell and hemoglobin counts in S180 cell-injected mice; type: in vivo; conditions: for WBC count: control 13.6±1.8; for Hb: control 134±15
# Experimental: Effect of TPA on the Peripheral White Blood Cells (WBC) and Hemoglobin (Hb) Counts in S180 Cell-Injected Mice:
# S180 cells were injected into mice. On the third day, the mice were given TPA i.p. at 50, 100 or 200 μg/kg/d for 7 days. On the second day after the treatment was completed, blood samples were taken from the tails of the treated mice for WBC and Hb analyses.
# [3] = tested on: cell cultures; conditions: Chemsyn product brochure; cited from earlier work
# [4] = tested on: HL-60 cells; assay: Effect of TPA in a human promyelocytic leukemia cell line (HL-60); type: cell-based; conditions: 10, 20 or 100 ng/ml
# Experimental: 1. Effect of TPA in a Human Promyelocytic Leukemia Cell Line (HL-60):
# HL-60 cells at 2×10^6 cells/ml were treated with TPA. The final concentrations of TPA were 10, 20, or 100 ng/ml. The ethanol content was less than 0.01%.
# [5] = tested on: human leukemia cell line HL-60; conditions: cited from earlier work
# [6] = tested on: B16 tumor cells; assay: Tumor growth inhibition in mice injected with B16 tumor cells; type: in vivo, C57 mice; conditions: statistically different from control
# Experimental: Effect of TPA in Mice Injected with B16 Tumor Cells:
# Four groups of C57 mice were used in the experiment. Each group contained 7 mice and one group was untreated. Each C57 mouse was injected with 0.2 ml of supernatant of a 1:6 w/v homogenate of B16 cells at the under-arm position. On the third day, each treatment group was given TPA i.p. at 50, 100 or 200 μg/kg/d for 8 days.
# [7] = tested on: leukemia (bone marrow myeloblast and promyelocyte); assay: Clinical treatment of leukemia patients with TPA; type: in vivo, humans
# [8] = tested on: skin and the mucous membrane; conditions: cited from earlier work
# [9] = tested on: HL-60 cells; assay: TPA + low doses of Ara-C, HL-60 differentiation; type: cell-based, human
# Text: (2) TPA+Low Doses of Ara-C:
# [10] = 0.25 mg/patient×4/week, i.v. infusion in 1 h
# [11] = 0.5 mg/patient×2/week, i.v. infusion in 1 h
# [12] = 1 mg/patient/week, i.v. infusion in 1 h
# [13] = subject 8, AML-M3, retinoic acid failed
# [14] = subject 9, secondary aplastic anemia, TPA 0.25 mg×2
smiles,measurement,setting,value
"CCCCCCCCCCCCCC(=O)O[C@@H]1[C@@H](C)[C@@]2(O)[C@@H](C=C(CO)C[C@]3(O)C(=O)C(C)=C[C@@H]23)[C@@H]2C(C)(C)[C@]12OC(C)=O [TPA, Phorbol 12-Myristate-13-Acetate]",Hb in urine,[1]; [10],No Hb was detected in the urine
same,"cardiac, hepatic, renal and pulmonary functions",[1]; [10],normal
same,chills and fever,[1]; [10],"also observed, but to a much lesser extent than with the higher dosages"
same,difficulty in breathing,[1]; [10],no patient suffered difficulty in breathing
same,Hb in urine,[1]; [11],"Occasionally, Hb was detected in patients urine"
same,"cardiac, hepatic, renal and pulmonary functions",[1]; [11],normal
same,difficulty in breathing,[1]; [11],not observed
same,tolerability,"[1]; 0.5 mg/patient×2/week, versus 1 mg",tolerated the lower dose more easily
same,Hb in urine,[1]; [12],Hb was detected in the urine
same,bleeding,[1]; [12],a minority of patients to bleed
same,"cardiac, hepatic, renal and pulmonary functions",[1]; [12],normal
same,difficulty in breathing,[1]; [12],several patients suffered for a short period of time difficulty in breathing
same,duration of chills,[1]; [12],about 30 min
same,duration of fever,[1]; [12],3 to 5 h
same,"fever, patients' temperature",[1]; [12],37.5-39.5 °C
same,onset of chills,[1]; [12],One hour after TPA administration
same,perspiration,[1]; [12],light to heavy perspiration
same,reversibility of side effects,[1]; [12],short lived and reversible
same,local irritation,[1]; TPA application,strong local irritation
same,WBC count,[2]; i.p. 50 μg/kg/d for 7 d,16.1±7.4 ×10^9 /L
same,Hb,[2]; i.p. 50 μg/kg/d for 7 d,136 ± 11 g/L
same,WBC count,[2]; i.p. 100 μg/kg/d for 7 d,18.7±3.0 ×10^9 /L
same,Hb,[2]; i.p. 100 μg/kg/d for 7 d,149 ± 12 g/L
same,WBC count,[2]; i.p. 200 μg/kg/d for 7 d,20.7±3.4 ×10^9 /L
same,Hb,[2]; i.p. 200 μg/kg/d for 7 d,149 ± 10 g/L
same,effect on Hb levels,[2]; i.p. 50-200 μg/kg/d for 7 d,not greatly affected
same,effect on peripheral WBC counts,[2]; i.p. 50-200 μg/kg/d for 7 d,could increase the peripheral WBC counts in mice in a dose-dependent manner
same,mitogenic activity,[3],powerful mitogen in cell cultures
same,differentiation to macrophages,[4]; after 4-6 days,the majority of the cells were induced to differentiate to macrophages in a dose-dependent manner
same,cell aggregation and attachment,[4]; after 3 hours,cell aggregation and attachment to the dish were observed
same,proliferation of HL-60 cells,[4]; after 3 hours,stopped proliferating
same,morphological changes,[4]; after 48 h,there were morphological changes
same,differentiation to nondividing macrophage-like cells,"[5]; Weinberg, Science 213:655-657, 1981",causes differentiation of cells of the human leukemia cell line HL-60 to nondividing macrophage-like cells
same,induction of differentiation,[5]; stable human promyelocytic leukemic cell line HL-60,induces differentiation
same,rate of inhibition of tumor growth,[6]; i.p. 50 μg/kg/d for 8 days,40.0%
same,rate of inhibition of tumor growth,[6]; i.p. 100 μg/kg/d for 8 days,59.4%
same,rate of inhibition of tumor growth,[6]; i.p. 200 μg/kg/d for 8 days,32.1%
same,Bone marrow myeloblast+promyelocyte after TPA treatment,[7]; [13],17%
same,Hb after TPA treatment,[7]; [13],66 g/L
same,WBC after TPA treatment,[7]; [14],1.9e+09 L⁻¹
same,treatment termination,[7]; [14],"Due to severe anemia, the TPA treatment was terminated"
same,"Bone marrow Myeloblast and promyelocyte, early in TPA treatment","[7]; subject 10, CML, 0.25 mg TPA once",9%
same,"myeloblast, promyelocyte, myelocyte","[7]; subject 10, CML, TPA 0.25 mg once, fifth day",completely disappeared
same,harm on oral ingestion,[8],harmful if ingested orally
same,irritant to skin,[8],highly potent irritant to skin
same,HL-60 cell differentiation,"[9]; TPA alone, low dose 20 ng/ml",weak cell differentiation-inducing agent
same,HL-60 cell differentiation,[9]; combination of TPA and Ara-C,induced the HL-60 cells to differentiate synergistically
